# Experimental data reported in PubChem BioAssay AID1117327 (Cheminformatics & Chemogenomics Research Group (CCRG), …, 2015).
# pIC50: −log10 of the molar value. Several values for one entry are separate records, joined by “and”; a condition that tells them apart may be missing. Equal entries are not always repeated. Activity calls are given as the source filed them. The rule behind the calls is not given here. Starred links: 1 amine or outer side, 2 acyl side, 3 side chain; linkers in the order of their positions; H or OH if unused. Positions of bridges follow the written chain, without caps; N, C: chain ends. Non-standard residues stand in square brackets, D forms with d. Residues, ends and D or L forms follow the SMILES beside them. Chains are numbered I, II in the order given. Actinocin(9to1) = Cc1c2oc3c(C)ccc(C(=O)[*:1])c3nc-2c(C(=O)[*:2])c(N)c1=O; NMeV = CN[C@H](C(=O)O)C(C)C; Sar = CNCC(=O)O
# Test system: C2C12 + WNT3A conditioned medium, alkaline phosphatase
# Assay: alkaline phosphatase induction in C2C12 cells, dose response, cell-based, WNT3A-conditioned medium (AID 1117327)
Structure (SMILES),pIC50,IC50
[O-][n+]1ccccc1SSc1cccc[n+]1[O-],6.88,
CCCCCCCCCCCCCCC[C@H](O)[C@@H](N)CO,,> 20000 nM (inactive)
COc1cccc2c1C(=O)c1c(O)c3c(c(O)c1C2=O)C[C@@](O)(C(=O)CO)C[C@@H]3O[C@H]1C[C@H](N)[C@H](O[C@@H]2CCCCO2)[C@H](C)O1,5.40,
COc1cc(C=C2CCC/C(=C\c3ccc(O)c(OC)c3)C2=O)ccc1O,,> 20000 nM (inactive)
Cc1nc(N)nc(N)c1-c1ccc(Cl)c(Cl)c1,7.52,
CCCCCCNC(=O)n1cc(F)c(=O)[nH]c1=O,,5550 nM (inactive)
O=C1C2CC=CCC2C(=O)N1SC(Cl)(Cl)Cl (centres undefined),6.29,
O=C1c2c(O)ccc(O)c2C(=O)c2c(NCCNCCO)ccc(NCCNCCO)c21,5.82,
COc1ccc2cc1Oc1ccc(cc1)C[C@H]1c3c(cc4c(c3Oc3cc5c(cc3OC)CCN(C)[C@@H]5C2)OCO4)CCN1C,5.69,
CC(C)C[C@H](NC(=O)[C@H](CCc1ccccc1)NC(=O)CN1CCOCC1)C(=O)N[C@@H](Cc1ccccc1)C(=O)N[C@@H](CC(C)C)C(=O)[C@@]1(C)CO1,7.82,
OCCN1CCN(CCCN2c3ccccc3Sc3ccc(Cl)cc32)CC1,,> 20000 nM (inactive)
COC(=O)Nc1nc2ccc(Sc3ccccc3)cc2[nH]1,6.36,
O=C1OC2(c3cc(Br)c(O)cc3Oc3c2cc(Br)c(O)[c]3[Hg])c2ccccc21 (centres undefined),,> 20000 nM (inactive)
CCCSc1ccc2nc(NC(=O)OC)[nH]c2c1,,12300 nM (inactive)
Cc1ccc2nc(N)[nH]c(=O)c2c1Sc1ccncc1,6.61,
CCN(CC)CCNc1ccc(CO)c2sc3ccccc3c(=O)c12,5.57,
CN1C[C@H](CNC(=O)OCc2ccccc2)C[C@@H]2c3cccc4c3c(cn4C)C[C@H]21,,> 20000 nM (inactive)
COc1cccc2c1C(=O)c1c(O)c3c(c(O)c1C2=O)C[C@@](O)(C(=O)CO)CC3OC1CC(N2CCOC(OC)C2)C(O)C(C)O1 (some centres undefined),,> 20000 nM (inactive)
NC(=NCCCCCCN=C(N)/N=C(\N)Nc1ccc(Cl)cc1)/N=C(\N)Nc1ccc(Cl)cc1,,> 20000 nM (inactive)
CCCCCCCCCCCCNCCNCCNCC(=O)O,,> 20000 nM (inactive)
COC(=O)Nc1nc2ccc(S(=O)c3ccccc3)cc2[nH]1 (centres undefined),6.25,

Structure (SMILES),pIC50,IC50
CN(Cc1cnc2nc(N)nc(N)c2n1)c1ccc(C(=O)N[C@@H](CCC(=O)O)C(=O)O)cc1,7.94,
Clc1cc(Cl)c(OCC#CI)cc1Cl,,> 20000 nM (inactive)
Nc1ccc2cc3ccc(N)cc3nc2c1,,> 20000 nM (inactive)
Cc1nc2ccc(CN(C)c3ccc(C(=O)N[C@@H](CCC(=O)O)C(=O)O)s3)cc2c(=O)[nH]1,8.38,
O=[N+]([O-])c1ccc(O)c2ncccc12,,6360 nM (inactive)
"Cc1c2oc3c(C)ccc(C(=O)N[C@@H]4C(=O)N[C@H](C(C)C)C(=O)N5CCC[C@H]5C(=O)N(C)CC(=O)N(C)[C@@H](C(C)C)C(=O)O[C@@H]4C)c3nc-2c(C(=O)N[C@@H]2C(=O)N[C@H](C(C)C)C(=O)N3CCC[C@H]3C(=O)N(C)CC(=O)N(C)[C@@H](C(C)C)C(=O)O[C@@H]2C)c(N)c1=O (I: T[dV]P[Sar][NMeV] / II: T[dV]P[Sar][NMeV]; ester I:1-I:C, II:1-II:C; linker I:N-II:N via Actinocin(9to1))",8.82,
COC(=O)Nc1nc2ccc(C(=O)c3ccccc3)cc2[nH]1,6.61,
CC[C@@]1(O)C(=O)OCc2c1cc1n(c2=O)Cc2cc3c(CN(C)C)c(O)ccc3nc2-1,7.75,
Cc1cc2c(C(C)C)c(O)c(O)c(C=O)c2c(O)c1-c1c(C)cc2c(C(C)C)c(O)c(O)c(C=O)c2c1O,,> 20000 nM (inactive)
Cc1nc(Nc2ncc(C(=O)Nc3c(C)cccc3Cl)s2)cc(N2CCN(CCO)CC2)n1,8.17,
COc1cc(NCc2ccc3nc(N)nc(N)c3c2C)cc(OC)c1OC,,> 20000 nM (inactive)
Cc1cc(=O)c2c(O)c3c(O)cc(=O)c4c3c3c(cc(O)c1c23)C(C)(C)C=4O,5.54,
CCc1nc(N)nc(N)c1-c1ccc(Cl)cc1,7.17,
COc1cc([C@@H]2c3cc4c(cc3[C@H](O)[C@H]3COC(=O)[C@H]23)OCO4)cc(OC)c1OC,8.04,
Cc1ccccc1C(=O)Nc1ccc(C(=O)N2CCCC(N(C)C)c3ccccc32)cc1 (centres undefined),,9980 nM (inactive)
C[n+]1c2cc(N)ccc2cc2ccc(N)cc21 (tested in a mixture with another compound),5.80,
CC[C@@]1(O)C(=O)OCc2c1cc1n(c2=O)Cc2c-1nc1ccccc1c2/C=N/OC(C)(C)C,8.49,
CN(C)c1ccc(C(=C2C=CC(=[N+](C)C)C=C2)c2ccccc2)cc1,6.44,
COCc1c(C(C)C)nc(C(C)C)c(/C=C/[C@@H](O)C[C@@H](O)CC(=O)O)c1-c1ccc(F)cc1,,> 20000 nM (inactive)
CN1CC[C@H](c2c(O)cc(O)c3c(=O)cc(-c4ccccc4Cl)oc23)[C@H](O)C1,6.34,
O=C1C(I)=CC(=C(c2cc(I)c(O)c(I)c2)c2ccccc2C(=O)O)C=C1I,,> 20000 nM (inactive)

Structure (SMILES),pIC50,IC50
CC(=O)Oc1ccc(C2(c3ccc(OC(C)=O)cc3)Oc3ccccc3NC2=O)cc1,,14000 nM (inactive)
CN(C)C(=S)SSC(=S)N(C)C,,> 20000 nM (inactive)
COc1cccc2c1C(=O)c1c(O)c3c(c(O)c1C2=O)C[C@@](O)(C(C)=O)C[C@@H]3O[C@H]1C[C@H](N)[C@H](O)[C@H](C)O1,8.21,
O=C(Nc1ccc([N+](=O)[O-])cc1Cl)c1cc(Cl)ccc1O,,> 20000 nM (inactive)
O=[N+]([O-])C(Br)(CO)CO,,> 20000 nM (inactive)
COC(=O)c1nc(Cl)c(Cl)nc1N,6.81,
Cc1cc(CC(C)CC(C)(C)C)n(O)c(=O)c1 (centres undefined),,> 20000 nM (inactive)
O=C(CCl)c1ccc(Cl)cc1Cl,,> 20000 nM (inactive)
Cc1ccc2c(Br)cc(Br)c(O)c2n1,,> 20000 nM (inactive)
CN(C)CCCN1c2ccccc2Sc2ccc(C(F)(F)F)cc21,,> 20000 nM (inactive)
CSc1ccc2c(c1)C(N1CCN(C)CC1)Cc1ccccc1S2 (centres undefined),,> 20000 nM (inactive)
CCCCCCCCCCCCCC[N+](C)(C)C,,> 20000 nM (inactive)
Cc1cc(O)c2ccccc2c1O,5.76,
CC[C@]1(O)C[C@@H]2CN(CCc3c([nH]c4ccccc34)[C@@](C(=O)OC)(c3cc4c(cc3OC)N(C)[C@H]3[C@@](O)(C(=O)OC)[C@H](OC(C)=O)[C@]5(CC)C=CCN6CC[C@]43[C@@H]65)C2)C1,,> 20 µM (inactive) and 8.9 nM
COC(=O)Nc1nc2ccc(C(=O)c3cccs3)cc2[nH]1,7.36,
Cc1ccc([N+](=O)[O-])[c]2c1[O][Hg]2,6.81,
CC[C@]1(O)C[C@H]2CN(CCc3c([nH]c4ccccc34)[C@@](C(=O)OC)(c3cc4c(cc3OC)N(C=O)[C@H]3[C@@](O)(C(=O)OC)[C@H](OC(C)=O)[C@]5(CC)C=CCN6CC[C@]43[C@@H]65)C2)C1,8.29,
COc1cc([C@@H]2c3cc4c(cc3[C@@H](O[C@@H]3O[C@@H]5CO[C@@H](C)O[C@@H]5[C@H](O)[C@@H]3O)[C@H]3COC(=O)[C@H]23)OCO4)cc(OC)c1O,,> 20000 nM (inactive)
COC(=O)Nc1nc2ccc(C(=O)C3CC3)cc2[nH]1,6.17,
CCCCCCCCCCCC(=O)[O][Sn]([CH2]CCC)([CH2]CCC)[O]C(=O)CCCCCCCCCCC,,> 20000 nM (inactive)
Oc1c(I)cc(Cl)c2cccnc12,,5400 nM (inactive)

Structure (SMILES),pIC50,IC50
Oc1c(Cl)cc(Cl)cc1Sc1cc(Cl)cc(Cl)c1O,,> 20000 nM (inactive)
C#C[C@]1(O)CC[C@H]2[C@@H]3CCc4cc(OC5CCCC5)ccc4[C@H]3CC[C@@]21C,,> 20000 nM (inactive)
CC(C)(C)C(=O)OCOP(=O)(COCCn1cnc2c(N)ncnc21)OCOC(=O)C(C)(C)C,6.41,
COC(=O)[C@H]1[C@H]2C[C@@H]3c4[nH]c5cc(OC)ccc5c4CCN3C[C@H]2C[C@@H](OC(=O)/C=C/c2ccc(O)c(OC)c2)[C@@H]1OC,,10400 nM (inactive)
C=C(C)[C@H]1Cc2c(ccc3c2O[C@@H]2COc4cc(OC)c(OC)cc4[C@@H]2C3=O)O1,6.60,
CCCCC1C(=O)N(c2ccccc2)N(c2ccc(O)cc2)C1=O (centres undefined),5.31,
CC[C@@H]([C@H](C)O)n1ncn(-c2ccc(N3CCN(c4ccc(OC[C@@H]5CO[C@@](Cn6cncn6)(c6ccc(F)cc6F)C5)cc4)CC3)cc2)c1=O,5.79,
CCC1=C[C@@H]2CN(C1)Cc1c([nH]c3ccccc13)[C@@](C(=O)OC)(c1cc3c(cc1OC)N(C)[C@H]1[C@@](O)(C(=O)OC)[C@H](OC(C)=O)[C@]4(CC)C=CCN5CC[C@]31[C@@H]54)C2,8.00,
CCCOc1ccc2nc(NC(=O)OC)[nH]c2c1,7.06,
c1ccc2c(c1)Sc1ccccc1N2CC1CN2CCC1CC2 (centres undefined),,> 20000 nM (inactive)
CCCCCCCCCCOCC(O)CN (centres undefined),,> 20000 nM (inactive)
CCCN(CCC)C(=O)C(CCC(=O)OCCCN1CCN(CCOC(=O)Cc2c(C)n(C(=O)c3ccc(Cl)cc3)c3ccc(OC)cc23)CC1)NC(=O)c1ccccc1 (centres undefined),,13200 nM (inactive)
C=CC(=O)Nc1cc2c(Nc3ccc(F)c(Cl)c3)ncnc2cc1OCCCN1CCOCC1,,9460 nM (inactive)
C[C@@]12C(=O)OC(=O)[C@]1(C)C1CCC2O1,5.83,
CCCCc1ccc2nc(NC(=O)OC)[nH]c2c1,7.17,
O=c1c(-c2ccccc2)c1-c1ccccc1,5.44,
CC(=O)[C@]1(O)Cc2c(O)c3c(c(O)c2[C@@H](O[C@H]2C[C@H](N)[C@H](O)[C@H](C)O2)C1)C(=O)c1ccccc1C3=O,6.30,
Cc1cc(C2CCCCC2)n(O)c(=O)c1,5.98,
O[C@@H](c1cc(C(F)(F)F)nc2c(C(F)(F)F)cccc12)[C@H]1CCCCN1,,> 20000 nM (inactive)
CCCCCCCCCCCCCC[N+](C)(C)Cc1ccccc1,,> 20000 nM (inactive)
NC(N)=NN=C(/C=C/c1ccc([N+](=O)[O-])o1)/C=C/c1ccc([N+](=O)[O-])o1,6.43,
